What all share (assay type): functional
Conditions in all cases: read-out: DIZ

The subject of assay [1] is Bacillus subtilis. Kind of assay: Antibacterial activity against Bacillus subtilis MTCC 121 at 50 ug/ml by cup plate method.
Assay [2] relates to Candida albicans. The experiment in a line: Antifungal activity against Candida albicans MTCC 227 at 50 ug/ml by cup-plate method.
The subject of assay [3] is Candida albicans. The experiment in a line: Antifungal activity against Candida albicans MTCC 227 at 300 ug/ml by cup-plate method.
Assay [4] has as its system Staphylococcus aureus. Kind of assay: Antibacterial activity against Staphylococcus aureus MTCC 96 at 200 ug/ml by cup-plate method.
Assay [5] deals with Staphylococcus aureus. The experiment in a line: Antibacterial activity against Staphylococcus aureus MTCC 96 at 50 ug/ml by cup-plate method.
For assay [6], the system named is Pseudomonas aeruginosa. Kind of assay: Antibacterial activity against Pseudomonas aeruginosa MTCC 2453 at 300 ug/ml by cup-plate method.
The test system of assay [7] is Staphylococcus aureus. The experiment in a line: Antibacterial activity against Staphylococcus aureus MTCC 96 at 300 ug/ml by cup-plate method.
The subject of assay [8] is Escherichia coli. Kind of assay: Antibacterial activity against Escherichia coli MTCC 739 at 100 ug/ml by cup-plate method.
The subject of assay [9] is Candida albicans. The experiment in a line: Antifungal activity against Candida albicans MTCC 227 at 100 ug/ml by cup-plate method.
The test system of assay [10] is Escherichia coli. Kind of assay: Antibacterial activity against Escherichia coli MTCC 739 at 50 ug/ml by cup-plate method.
In assay [11] the test system is Escherichia coli. Kind of assay: Antibacterial activity against Escherichia coli MTCC 739 at 200 ug/ml by cup-plate method.
In assay [12] the test system is Candida albicans. The experiment in a line: Antifungal activity against Candida albicans MTCC 227 at 200 ug/ml by cup-plate method.
Assay [13] has as its system Pseudomonas aeruginosa. The experiment in a line: Antibacterial activity against Pseudomonas aeruginosa MTCC 2453 at 50 ug/ml by cup-plate method.
Assay [14] has as its system Bacillus subtilis. Kind of assay: Antibacterial activity against Bacillus subtilis MTCC 121 at 100 ug/ml by cup plate method.
Assay [15] deals with Bacillus subtilis. Kind of assay: Antibacterial activity against Bacillus subtilis MTCC 121 at 200 ug/ml by cup plate method.
For assay [16], the system named is Staphylococcus aureus. The experiment in a line: Antibacterial activity against Staphylococcus aureus MTCC 96 at 100 ug/ml by cup-plate method.
Assay [17] deals with Bacillus subtilis. The experiment in a line: Antibacterial activity against Bacillus subtilis MTCC 121 at 300 ug/ml by cup plate method.
For assay [18], the system named is Escherichia coli. Kind of assay: Antibacterial activity against Escherichia coli MTCC 739 at 300 ug/ml by cup-plate method.
Assay [19] relates to Pseudomonas aeruginosa. Kind of assay: Antibacterial activity against Pseudomonas aeruginosa MTCC 2453 at 100 ug/ml by cup-plate method.
In assay [20] the test system is Pseudomonas aeruginosa. Kind of assay: Antibacterial activity against Pseudomonas aeruginosa MTCC 2453 at 200 ug/ml by cup-plate method.

Structures are written as SMILES.

For `O=C1N/C(=N\c2ccccc2[N+](=O)[O-])S/C1=C\c1ccccc1`, the zone of inhibition at 50 µg/mL in [1] was found to be 8 mm; in assay [2] it was 10 mm; in assay [5], 10 mm; in [10] it was 7 mm; in assay [13], 6 mm. The zone of inhibition at 300 µg/mL was determined as 18 mm in assay [3]; 10 mm in assay [6]; 15 mm in [7]; 13 mm in assay [17]; 12 mm in assay [18]. The zone of inhibition at 200 µg/mL in assay [4] worked out at 12 mm; in assay [11] it was 10 mm; in [12] it was 13 mm; in assay [15], 11 mm; in [20], 8 mm. The zone of inhibition at 100 µg/mL in assay [8] worked out at 8 mm; in assay [9], 11 mm; in [14] it was 10 mm; in [16], 11 mm; in assay [19], 6 mm.

For the origin of these results see ChEMBL document CHEMBL3044740, “Syntheses and evaluation of 2,5-disubstituted 4-thiazolidinone analogues as antimicrobial agents” (2012).
